A word on the IC50: it is the concentration at which inhibition is half-maximal. Read a low IC50 as inhibition by little substance. As a reminder, the MIC is the least concentration at which growth counts as inhibited. Higher therefore signals weaker potency.

≈ marks a conversion by molar mass, not a printed value.

The test system of this experiment is Mycobacterium tuberculosis. Kind of experiment: Antimycobacterial activity against Mycobacterium bovis BCG. Format: functional, organism-based. The following applies: variant bovis BCG.

Take `C[C@@H]1O[C@@H](O[C@H]2C[C@](C)(O)Cc3cc4c(c(O)c32)C(=O)c2c(O)cccc2C4=O)[C@H](O)[C@H](O)[C@H]1O`: the 50% inhibitory concentration (IC50) is 800 nM and the lowest concentration to inhibit growth (MIC) was 10 µM (≈ 4.86 µg/mL).

In turn, `CO[C@H]1[C@H](O[C@H]2C[C@](C)(O)C(=O)c3cc4c(c(O)c32)C(=O)c2c(O)cccc2C4=O)O[C@@H](C)[C@H](O)[C@H]1O` came in with an IC50 of 700 nM and an MIC of 10 µM (≈ 5.14 µg/mL).

As for `CO[C@H]1[C@H](O[C@H]2C[C@](C)(O)Cc3cc4c(c(O)c32)C(=O)c2c(O)cccc2C4=O)O[C@@H](C)[C@H](O)[C@H]1O`, the IC50 turned out to be 1100 nM and the MIC was 30 µM (≈ 15 µg/mL).

The compound `CO[C@H]1[C@H](O[C@@H]2c3c(cc4c(c3O)C(=O)c3c(O)cccc3C4=O)C(=O)[C@@](C)(O)[C@H]2OC)O[C@@H](C)[C@H](O)[C@H]1O` [ARANCIAMYCIN] had an IC50 of 1700 nM and an MIC of 30 µM (≈ 16.3 µg/mL).

(Values after ChEMBL document CHEMBL3576799, “Aranciamycins I and J, Antimycobacterial Anthracyclines from an Australian Marine-Derived Streptomyces sp” (J Nat Prod, 2015).)
